Entries after “also recorded” stand apart in the source; their conditions may differ.
Experiments:
[1] = system: cardiac sodium channel with mutations in M1651 and M1652; settings: whole-cell recording, ref Tang et al. (1996), cited from earlier work
[2] = target: T1, rat brain type IIA sodium channels (F1489Q α subunit + wild-type β1) (Rattus norvegicus, UniProt P04775, F1489Q/N209D); format: biochemical, rat (expressed in Xenopus laevis oocytes)
[3] = target: T1, rat brain type IIA sodium channels (F1489Q α subunit + wild-type β1); format: biochemical, rat (expressed in Xenopus laevis oocytes); remark: listed apart in the source
sodium channels = settings: ref Eaholtz et al., 1994, cited from earlier work

T1 sequence (P04775 whole entry N209D/F1489Q): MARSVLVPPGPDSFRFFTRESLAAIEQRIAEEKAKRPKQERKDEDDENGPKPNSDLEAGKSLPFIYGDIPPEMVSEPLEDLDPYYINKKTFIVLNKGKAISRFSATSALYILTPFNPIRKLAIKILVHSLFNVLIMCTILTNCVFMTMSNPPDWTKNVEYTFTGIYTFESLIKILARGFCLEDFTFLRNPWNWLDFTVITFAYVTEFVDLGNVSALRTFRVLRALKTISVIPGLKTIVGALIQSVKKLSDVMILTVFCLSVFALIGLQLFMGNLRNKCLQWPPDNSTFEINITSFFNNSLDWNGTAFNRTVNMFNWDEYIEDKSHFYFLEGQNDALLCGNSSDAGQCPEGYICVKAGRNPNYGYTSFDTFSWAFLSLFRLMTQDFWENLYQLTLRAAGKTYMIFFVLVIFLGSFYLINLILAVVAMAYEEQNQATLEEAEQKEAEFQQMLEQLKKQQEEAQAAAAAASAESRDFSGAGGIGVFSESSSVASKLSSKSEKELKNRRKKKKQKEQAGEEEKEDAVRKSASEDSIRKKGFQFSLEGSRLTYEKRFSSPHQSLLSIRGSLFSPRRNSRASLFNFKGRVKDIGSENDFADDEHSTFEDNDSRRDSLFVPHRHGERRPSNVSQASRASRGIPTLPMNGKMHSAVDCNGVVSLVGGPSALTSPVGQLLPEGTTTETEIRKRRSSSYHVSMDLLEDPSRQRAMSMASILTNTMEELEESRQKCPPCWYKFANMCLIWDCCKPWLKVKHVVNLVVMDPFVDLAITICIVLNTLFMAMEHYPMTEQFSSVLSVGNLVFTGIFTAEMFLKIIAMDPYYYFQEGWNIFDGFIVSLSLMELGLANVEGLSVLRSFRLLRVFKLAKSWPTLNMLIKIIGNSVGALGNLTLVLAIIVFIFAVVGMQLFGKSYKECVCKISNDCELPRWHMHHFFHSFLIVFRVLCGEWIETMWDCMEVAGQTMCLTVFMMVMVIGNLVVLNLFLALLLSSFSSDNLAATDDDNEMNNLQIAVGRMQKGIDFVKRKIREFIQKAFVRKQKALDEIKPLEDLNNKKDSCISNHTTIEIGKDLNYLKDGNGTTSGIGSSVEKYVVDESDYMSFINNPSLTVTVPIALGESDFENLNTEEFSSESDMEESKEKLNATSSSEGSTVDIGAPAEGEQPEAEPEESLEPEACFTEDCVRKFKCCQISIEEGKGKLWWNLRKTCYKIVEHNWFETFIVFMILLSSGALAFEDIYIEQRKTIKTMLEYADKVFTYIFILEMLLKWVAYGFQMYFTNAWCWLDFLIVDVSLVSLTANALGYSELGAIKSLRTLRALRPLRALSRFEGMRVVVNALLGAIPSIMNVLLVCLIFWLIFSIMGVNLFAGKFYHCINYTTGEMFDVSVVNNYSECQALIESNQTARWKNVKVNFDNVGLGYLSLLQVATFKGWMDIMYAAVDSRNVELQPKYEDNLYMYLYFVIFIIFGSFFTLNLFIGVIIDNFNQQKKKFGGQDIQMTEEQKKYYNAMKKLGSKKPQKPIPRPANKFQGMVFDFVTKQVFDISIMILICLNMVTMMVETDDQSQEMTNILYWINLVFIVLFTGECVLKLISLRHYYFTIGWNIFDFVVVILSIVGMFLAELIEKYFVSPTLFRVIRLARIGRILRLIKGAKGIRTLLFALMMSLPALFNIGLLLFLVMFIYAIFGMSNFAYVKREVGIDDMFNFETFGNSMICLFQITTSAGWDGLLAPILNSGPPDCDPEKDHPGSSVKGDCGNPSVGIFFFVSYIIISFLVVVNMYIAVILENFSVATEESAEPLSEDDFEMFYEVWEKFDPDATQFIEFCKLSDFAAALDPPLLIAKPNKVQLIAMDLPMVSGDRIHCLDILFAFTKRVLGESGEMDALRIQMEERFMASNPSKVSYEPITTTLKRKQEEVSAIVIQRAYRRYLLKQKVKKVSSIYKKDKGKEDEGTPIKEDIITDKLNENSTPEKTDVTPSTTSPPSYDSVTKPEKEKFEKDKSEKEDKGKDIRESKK
T1 sequence (Q00954 19-218 partner): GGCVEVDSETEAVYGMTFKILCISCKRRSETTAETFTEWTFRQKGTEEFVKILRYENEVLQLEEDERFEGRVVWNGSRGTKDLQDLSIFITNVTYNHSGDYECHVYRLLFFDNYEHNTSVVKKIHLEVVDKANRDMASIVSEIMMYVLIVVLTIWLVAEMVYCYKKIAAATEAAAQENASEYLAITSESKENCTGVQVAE

For CC[C@H](C)[C@H](NC(=O)[C@H](CCCCN)NC(C)=O)C(=O)N[C@@H](Cc1ccccc1)C(=O)N[C@@H](CCSC)C(=O)N[C@@H](CCCCN)C(N)=O [KIFMK, acetyl-KIFMK-NH2], the “K d from ratio of the on and off rates” value ([1]; outward sodium currents) is listed as roughly 30 µM, the “dependence of the on rate on peptide concentration” value [1] is listed as “deviated significantly from linearity” and the “voltage dependence of block rate” value [1] is listed as “no voltage dependence of block rate was detected”. For the same compound, the “shift of the I-V relationship” value ([2]; 100 μM KIFMK compared with no peptide control, test voltages −80 to 110 mV) was “negative shift of the I-V relationship”, the “voltage dependence of unblocking (off) rates” value ([2]; 100 μM KIFMK, −30 to 30 mV) was “voltage independent; also recorded: not affected by voltage; also recorded: no voltage dependence” and the “mean unblocking rate k u over the voltage range” value ([2]; 100 μM KIFMK, −30 to 30 mV, mean ± SEM, n = 4) was 336 ± 14 s⁻¹. The “voltage constant of blocking rate fit, exp^(V/43 mV)” value ([2]; 100 μM KIFMK, e-fold factor of k b (Fig. 3 B) and k on (Scheme 1)) was 43 mV, the “extent of the electric field traversed by the lysine charges” value ([2]; if both charges enter the electric field to an equivalent extent) was 30% and the “block of the steady state sodium current” value ([3]; 100 μM KIFMK, voltage step from −100 to 0 mV) was greater than 70%. The koff ([3]; read-out: unblocking rate k u (= k off)) was 342 ± 21 s⁻¹, the types of block (sodium channels; cytoplasmic application) was “a rapid block, which occurs in milliseconds and resembles inactivation in kinetics and voltage dependence, and a cumulative, use-dependent block, which occurs during repetitive high voltage pulses” and the slow block (sodium channels) was “slow block that occurs at voltages more depolarized than 0 mV”. For the same compound, the “state preference of block” value (sodium channels) was “appears to preferentially block open channels”.
